From patent US10227357B2, “Compounds and methods for kinase modulation, and indications therefor” (Plexxikon Inc., priority 2012, dated 2019)

Tests used:
[1] = target: T1, c-kit kinase (Homo sapiens, UniProt P10721); experiment: c-Kit biochemical assay, AlphaScreen, 10 μM ATP; settings: c-kit biochemical inhibitory activity; read-out: Biochemical activity (IC50 μM) Kit
T1 construct: The c-kit (or kinase domain thereof) is an active kinase in AlphaScreen; poly-Histidine tag (in-house protein only) (cleaved yes); host or cells: E. coli BL21(DE3)RIL, co-expressed with PTP1B
Method in brief: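 His-tagged c-Kit expressed in E. coli with co-expressed PTP1B (dephosphorylated), tag removed; 0.1 ng per reaction with biotinylated-peptide substrate in 50 mM HEPES pH 7.2, 5 mM MgCl2, 5 mM MnCl2, 5% DMSO, 10 μM ATP, 1 h at room temperature. Phosphorylation detected by AlphaScreen (streptavidin donor, PY20 acceptor beads); IC50 from 8-point 1:3 dilution series.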

[2] = target: T2, c-kit mutant D816V (Homo sapiens, UniProt P10721, D816V/DEL694-753); experiment: c-Kit mutant D816V biochemical assay, AlphaScreen; settings: c-kit D816V biochemical inhibitory activity; read-out: Biochemical activity (IC50 μM) Kit D816V
T2 construct: residues 551-934, kinase insertion domain residues 694-753 deleted; 6x-histidine (N); made in house; host or cells: E. coli Arctic Express (DE3) RIL (Stratagene)
Method in brief: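 Eight-point, threefold compound series incubated 30 min at room temperature with E. coli-produced D816V kinase, 10 μM ATP, Mg2+/Mn2+ HEPES buffer pH 7.2 and 5% DMSO. After EDTA stop, streptavidin and anti-phosphotyrosine (PY20) AlphaScreen beads gave the read-out, and IC50 was fitted from the concentration–signal curve.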

T1 sequence (P10721 26-976): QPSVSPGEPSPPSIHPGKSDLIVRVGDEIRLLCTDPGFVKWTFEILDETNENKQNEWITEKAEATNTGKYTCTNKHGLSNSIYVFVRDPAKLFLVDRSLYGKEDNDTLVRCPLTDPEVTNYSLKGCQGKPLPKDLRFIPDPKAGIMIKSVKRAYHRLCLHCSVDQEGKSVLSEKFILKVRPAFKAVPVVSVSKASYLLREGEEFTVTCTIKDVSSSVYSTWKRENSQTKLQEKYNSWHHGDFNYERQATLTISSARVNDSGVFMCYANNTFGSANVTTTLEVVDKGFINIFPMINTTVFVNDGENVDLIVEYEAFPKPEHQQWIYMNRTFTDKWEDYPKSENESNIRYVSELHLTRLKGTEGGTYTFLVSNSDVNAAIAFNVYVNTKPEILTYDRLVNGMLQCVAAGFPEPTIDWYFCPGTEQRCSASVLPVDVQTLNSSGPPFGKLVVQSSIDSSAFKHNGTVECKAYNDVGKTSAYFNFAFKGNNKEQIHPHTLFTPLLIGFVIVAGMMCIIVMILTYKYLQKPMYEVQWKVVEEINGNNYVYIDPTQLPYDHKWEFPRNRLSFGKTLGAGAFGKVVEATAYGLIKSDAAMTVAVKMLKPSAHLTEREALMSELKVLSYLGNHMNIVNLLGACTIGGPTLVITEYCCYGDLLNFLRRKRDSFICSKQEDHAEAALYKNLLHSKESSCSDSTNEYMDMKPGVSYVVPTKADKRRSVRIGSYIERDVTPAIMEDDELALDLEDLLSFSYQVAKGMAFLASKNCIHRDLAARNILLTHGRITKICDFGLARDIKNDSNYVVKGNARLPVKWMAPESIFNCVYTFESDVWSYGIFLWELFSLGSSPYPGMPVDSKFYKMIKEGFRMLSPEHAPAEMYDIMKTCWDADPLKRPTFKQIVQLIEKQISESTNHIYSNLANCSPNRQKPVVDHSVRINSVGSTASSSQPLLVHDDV
T2 sequence (P10721 with tags, fused parts or gaps DEL694-753/D816V): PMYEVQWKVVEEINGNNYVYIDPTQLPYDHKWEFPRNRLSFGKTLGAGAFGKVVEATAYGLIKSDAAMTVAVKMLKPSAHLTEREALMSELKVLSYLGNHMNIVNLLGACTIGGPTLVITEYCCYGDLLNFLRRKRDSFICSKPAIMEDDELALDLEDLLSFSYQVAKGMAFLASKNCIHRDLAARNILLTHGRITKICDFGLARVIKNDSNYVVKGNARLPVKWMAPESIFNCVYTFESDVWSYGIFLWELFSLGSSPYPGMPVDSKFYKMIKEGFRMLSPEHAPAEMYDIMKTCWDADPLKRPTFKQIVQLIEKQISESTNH

SMILES	IC50 [1]	IC50 [2]
C[C@H](NC(=O)N1CCN(c2ncnc3[nH]c(-c4ccc(Cl)cc4)cc23)C[C@H]1C)c1ccc(F)cc1 [P-0023, (2R)-4-[6-(4-chlorophenyl)-7H-pyrrolo[2,3-d]pyrimidin-4-yl]-N-[(1S)-1-(4-fluorophenyl)ethyl]-2-methyl-piperazine-1-carboxamide]	10 to 200 µM	0.0001 to 1 µM
COc1ccc(CNC(=O)N2CCN(c3ncnc4[nH]c(-c5ccc(F)cc5)cc34)CC2)cc1 [P-0157, 4-[6-(4-fluorophenyl)-7H-pyrrolo[2,3-d]pyrimidin-4-yl]-N-[(4-methoxyphenyl)methyl]piperazine-1-carboxamide]	10 to 200 µM	10 to 200 µM
CNC(=O)c1cccc(-c2cc3c(N4CCN(C(=O)NCc5ccc(F)cc5)CC4)ncnc3[nH]2)c1 [P-0081, N-[(4-fluorophenyl)rnethyl]-4-[6-[3-(methylcarbamoyl)phenyl]-7H-pyrrolo[2,3-d]pyrimidin-4-yl]piperazine-1-carboxamide]	1 to 10 µM	0.0001 to 1 µM
Cc1cc2c(N3CCN(C(=O)N[C@@H](C)c4cccc(OC(F)F)c4)C(C)(C)C3)ncnc2[nH]1 [P-0645, N-[(1S)-1-[3-(difluoromethoxy)phenyl]ethyl]-2,2-dimethyl-4-(6-methyl-7H-pyrrolo[2,3-d]pyrimidin-4-yl)piperazine-1-carboxamide]	10 to 200 µM	1 to 10 µM
Cc1ccc([C@H](C)NC(=O)N2CCN(c3ncnc4[nH]c(-c5ccc(F)cc5)cc34)C[C@H]2C)cc1 [P-0712, (2R)-4-[6-(4-fluorophenyl)-7H-pyrrolo[2,3-d]pyrimidin-4-yl]-2-methyl-N-[(1S)-1-(p-tolyl)ethyl]piperazine-1-carboxamide]	10 to 200 µM	0.0001 to 1 µM
C[C@@H]1CN(c2ncnc3[nH]c(-c4ccncc4)cc23)CCN1C(=O)Nc1ccc(OC(F)(F)F)cc1 [P-0063, (2R)-2-methyl-4-[6-(4-pyridyl)-7H-pyrrolo[2,3-d]pyrimidin-4-yl]-N-[4-(trifluoromethoxy)phenyl]piperazine-1-carboxamide]	0.0001 to 1 µM	0.0001 to 1 µM
CCCc1ccc(S(=O)(=O)Nc2ccc(-c3ncnc4[nH]c(C)cc34)cc2)cc1 [P-0282, N-[4-(6-methyl-7H-pyrrolo[2,3-d]pyrimidin-4-yl)phenyl]-4-propyl-benzenesulfonamide]	1 to 10 µM	0.0001 to 1 µM
Cc1nn(C)cc1-c1cc2c(N3CCN(C(=O)N[C@@H](C)c4ccc(F)cc4)CC3)ncnc2[nH]1 [P-0724, 4-[6-(1,3-dimethylpyrazol-4-yl)-7H-pyrrolo[2,3-d]pyrimidin-4-yl]-N-[(1S)-1-(4-fluorophenyl)ethyl]piperazine-1-carboxamide]	0.0001 to 1 µM	0.0001 to 1 µM
CC1(C)C=C(c2cc3c(N4CCC(NS(=O)(=O)c5ccc(OC(F)(F)F)cc5)CC4)ncnc3[nH]2)CC(C)(C)N1 [P-0662, N-[1-[6-(2,2,6,6-tetramethyl-1,3-dihydropyridin-4-yl)-7H-pyrrolo[2,3-d]pyrimidin-4-yl]-4-piperidyl]-4-(trifluoromethoxy)benzenesulfonamide]	1 to 10 µM	1 to 10 µM
CCc1ccc(S(=O)(=O)NC2CCN(c3ncnc4[nH]c(-c5cnn(C)c5)cc34)CC2)cc1 [P-0676, 4-ethyl-N-[1-[6-(1-methylpyrazol-4-yl)-7H-pyrrolo[2,3-d]pyrimidin-4-yl]-4-piperidyl]benzenesulfonamide]	0.0001 to 1 µM	0.0001 to 1 µM
Cc1cc2c(-c3ccc(NS(=O)(=O)c4ccc(C)c(F)c4)cc3F)ncnc2[nH]1 [P-0365, 3-fluoro-N-[3-fluoro-4-(6-methyl-7H-pyrrolo[2,3-d]pyrimidin-4-yl)phenyl]-4-methyl-benzenesulfonamide]	10 to 200 µM	1 to 10 µM
NS(=O)(=O)c1cccc(-c2cc3c(N4CCN(C(=O)Nc5ccc(OC(F)(F)F)cc5)CC4)ncnc3[nH]2)c1 [P-0083, 4-[6-(3-sulfamoylphenyl)-7H-pyrrolo[2,3-d]pyrimidin-4-yl]-N-[4-(trifluoromethoxy)phenyl]piperazine-1-carboxamide]	0.0001 to 1 µM	0.0001 to 1 µM
O=C(Nc1ccc(OC(F)F)cc1)N1CCN(c2ncnc3[nH]c(-c4ccc(F)cc4)cc23)CC1 [P-0125, N-[4-(difluoromethoxy)phenyl]-4-[6-(4-fluorophenyl)-7H-pyrrolo[2,3-d]pyrimidin-4-yl]piperazine-1-carboxamide]	0.0001 to 1 µM	1 to 10 µM
O=C(NS(=O)(=O)c1ccc(Cl)cc1)N1CCN(c2ncnc3[nH]c(-c4ccc(F)cc4)cc23)CC1 [P-0098, N-(4-chlorophenyl)sulfonyl-4-[6-(4-fluorophenyl)-7H-pyrrolo[2,3-d]pyrimidin-4-yl]piperazine-1-carboxamide]	1 to 10 µM	1 to 10 µM
COc1cc2ncnc(-c3ccc(N)cc3F)c2cc1OC [P-0267, 4-(6,7-dimethoxyquinazolin-4-yl)-3-fluoro-aniline]	10 to 200 µM	0.0001 to 1 µM
Cc1cc2c(N3CCN(C(=O)N[C@@H](C)c4cccc(Cl)c4)C(C)(C)C3)ncnc2[nH]1 [P-0641, N-[(1S)-1-(3-chlorophenyl)ethyl]-2,2-dimethyl-4-(6-methyl-7H-pyrrolo[2,3-d]pyrimidin-4-yl)piperazine-1-carboxamide]	10 to 200 µM	0.0001 to 1 µM
CN(C)c1ncc(-c2cc3c(N4CCC(NS(=O)(=O)c5ccc(OC(F)(F)F)cc5)CC4)ncnc3[nH]2)s1 [P-0673, N-[1-[6-[2-(dimethylamino)thiazol-5-yl]-7H-pyrrolo[2,3-d]pyrimidin-4-yl]-4-piperidyl]-4-(trifluoromethoxy)benzenesulfonamide]	1 to 10 µM	1 to 10 µM
Cc1n[nH]c2ncnc(-c3ccc(NS(=O)(=O)c4ccc(C(F)(F)F)nc4)cc3)c12 [P-0441, N-[4-(3-methyl-1H-pyrazolo[3,4-d]pyrimidin-4-yl)phenyl]-6-(trifluoromethyl)pyridine-3-sulfonamide]	10 to 200 µM	0.0001 to 1 µM
O=C(Nc1ccc(OC(F)(F)F)cc1)N1CCN(c2ncnc3[nH]c(-c4ccc(C5CC5)nc4)cc23)CC1 [P-0111, 4-[6-(6-cyclopropyl-3-pyridyl)-7H-pyrrolo[2,3-d]pyrimidin-4-yl]-N-[4-(trifluoromethoxy)phenyl]piperazine-1-carboxamide]	1 to 10 µM	10 to 200 µM
COCCOc1cc2ncnc(-c3ccc(NS(=O)(=O)c4ccc(OC)cc4)cc3F)c2cc1OCCOC [P-0262, N-[4-[6,7-bis(2-methoxyethoxy)quinazolin-4-yl]-3-fluoro-phenyl]-4-methoxy-benzenesulfonamide]	0.0001 to 1 µM	0.0001 to 1 µM
Cc1cc2c(N3CCN(C(=O)N[C@@H](C)c4ccc(F)cc4)[C@H](C)C3)ncnc2[nH]1 [P-0646, (2R)-N-[(1S)-1-(4-fluorophenyl)ethyl]-2-methyl-4-(6-methyl-7H-pyrrolo[2,3-d]pyrimidin-4-yl)piperazine-1-carboxamide]	10 to 200 µM	1 to 10 µM
C[C@H](NC(=O)N1CCN(c2ncnc3[nH]c(-c4ccc(C#N)cc4)cc23)C[C@H]1C)c1ccc(F)cc1 [P-0690, (2R)-4-[6-(4-cyanophenyl)-7H-pyrrolo[2,3-d]pyrimidin-4-yl]-N-[(1S)-1-(4-fluorophenyl)ethyl]-2-methyl-piperazine-1-carboxamide]	10 to 200 µM	0.0001 to 1 µM
Cc1cc2c(-c3ccc(NS(=O)(=O)c4ccc(Br)cc4)cc3)ncnc2[nH]1 [P-0318, 4-bromo-N-[4-(6-methyl-7H-pyrrolo[2,3-d]pyrimidin-4-yl)phenyl]benzenesulfonamide]	1 to 10 µM	1 to 10 µM
CS(=O)(=O)N1CC=C(c2cc3ncnc(N4CCN(C(=O)NCc5ccc(F)cc5)CC4)c3s2)CC1 [P-0568, N-[(4-fluorophenyl)methyl]-4-[6-(1-methylsulfonyl-3,6-dihydro-2H-pyridin-4-yl)thieno[3,2-d]pyrimidin-4-yl]piperazine-1-carboxamide]	1 to 10 µM	0.0001 to 1 µM
CCCS(=O)(=O)Nc1ccc(-c2ncnc3[nH]c(-c4ccc(F)cc4)cc23)c(F)c1 [P-0397, N-[3-fluoro-4-[6-(4-fluorophenyl)-7H-pyrrolo[2,3-d]pyrimidin-4-yl]phenyl]propane-1-sulfonamide]	1 to 10 µM	0.0001 to 1 µM
CS(=O)(=O)Nc1ccc(-c2ncnc3[nH]c(-c4ccc(F)cc4)cc23)cc1 [P-0432, N-[4-[6-(4-fluorophenyl)-7H-pyrrolo[2,3-d]pyrimidin-4-yl]phenyl]methanesulfonamide]	0.0001 to 1 µM	0.0001 to 1 µM
COc1cccc([C@H](C)NC(=O)N2CCN(c3ncnc4cc(N5CCC(F)(F)CC5)sc34)CC2(C)C)c1 [P-0680, 4-[6-(4,4-difluoro-1-piperidyl)thieno[3,2-d]pyrimidin-4-yl]-N-[(1S)-1-(3-methoxyphenyl)ethyl]-2,2-dimethyl-piperazine-1-carboxamide]	1 to 10 µM	0.0001 to 1 µM
Cc1cc2c(-c3ccc(NS(=O)(=O)c4ccc(OC(F)F)cc4)c(F)c3)ncnc2[nH]1 [P-0360, 4-(difluoromethoxy)-N-[2-fluoro-4-(6-methyl-7H-pyrrolo[2,3-d]pyrimidin-4-yl)phenyl]benzenesulfonamide]	1 to 10 µM	10 to 200 µM
